The values that follow come from the METLIN SMRT retention time set (Domingo-Almenara et al. 2019).

The data set in a line: gradient 5% acetonitrile 3 min, to 50% in 2 min, to 85% in 15 min, held 3 min, 100 µL/min. The settings on record: column: Zorbax Extend-C18 2.1 x 50 mm; eluents: water / acetonitrile, 0.1% formic acid. In short, it runs like this: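 In both positive and negative ionization mode, a quadrupole time-of-flight mass spectrometer coupled to HPLC analyzed pure standards run in mixtures of ~100 molecules. The Zorbax Extend-C18 column (2.1 × 50 mm, 1.8 μm) was operated at 100 μL/min with water and acetonitrile, each containing 0.1% formic acid. The dead volume was 40 μL and the dwell volume 900 μL. Retention time came from adduct peaks that were computationally picked and individually inspected by hand.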
`CCN1c2cc(Cl)ccc2C(=O)NC12CCN(C(=O)NCCc1ccccc1)CC2` came in with an RP-LC retention time of 863 s.
In the case of `Cc1ccc(CN2CCCC(c3nc(-c4cnccn4)no3)CCNC(=O)CC2)s1` (centres undefined) it was 603 s.
Compound `CCCn1cnc2cc(-c3noc(CNC(=O)c4ccccc4)n3)ccc21` registered an RP-LC retention time of 667 s.
For the compound `CC(C)N1C(=O)c2cccnc2Sc2cc(NC(=O)C3CC3)ccc21`, the RP-LC retention time is 733 s.
For the compound `O=C(O)CCC(=O)Nc1ccccc1Cl`, the RP-LC retention time came out at 616 s.
The result for `CCOC(=O)c1cccc(NC(=O)Cc2csc3nc(-c4ccc(OC)c(OC)c4)cn23)c1` reads 761 s.
Regarding `COc1ccc(-c2nc(C)cc(C)c2CNS(=O)(=O)c2cccc(OC)c2)cc1`, the RP-LC retention time turned out to be 656 s.
The result for `CC(C)C(=O)Nc1ccc(-c2nc(-c3ccc(Cl)cc3)no2)cc1` reads 1200 s.
`COc1ccc(Cl)c2c(=O)c3c([nH]c12)CCN(CC(=O)Nc1ccccc1Cl)C3`: the RP-LC retention time is 638 s.
On to `CCCCNC(=O)C1CCN(Cc2cc3ccccc3n2Cc2cccc(C)c2)CC1`, for which the RP-LC retention time is 800 s.
As to `CC(=O)c1cccc(NC(=O)Cn2c(-c3ccc(F)cc3)nc(C)cc2=O)c1`, the RP-LC retention time stood at 963 s.
In turn, `Cc1ccc(-c2noc(-c3nc(Cc4cccc(F)c4)no3)n2)cc1` gave an RP-LC retention time of 1180 s.
The compound `Cc1cc(=O)n(CC(=O)NCc2ccc3c(c2)OCO3)c(N2CCOCC2)n1` came in with an RP-LC retention time of 622 s.
The compound `O=C(CC1CCCC1)NC(c1ccccc1)c1nnc(N2CCCCC2)o1` (centres undefined) registered an RP-LC retention time of 881 s.
Take `CCOc1cc(=O)n2c(c1C(=O)Nc1cc(F)ccc1F)CCCC2`: the RP-LC retention time was determined as 748 s.
In turn, `O=C(Nc1ccc(Cl)cc1)N1CCN(CCn2cnc3cccnc32)CC1` had an RP-LC retention time of 604 s.
Take `Cc1cc(N2CCOCC2)nc(N2CCN(C(=O)Cc3ccc(F)cc3)CC2)n1`: the RP-LC retention time was found to be 566 s.
The result for `CC1CCC(NS(=O)(=O)c2ccc3c(c2)c(=O)n(CC(=O)N2CCCC2)c(=O)n3C)CC1` (centres undefined) reads 834 s.
The compound `Cc1ccc(-c2nc(-c3cccc(-c4ccn[nH]4)c3)no2)s1` displayed an RP-LC retention time of 1020 s.
With `CCc1cccc(N2C(=O)CN(S(C)(=O)=O)CC2(C)C(=O)NCc2ccc(Cl)cc2)c1` (centres undefined), the RP-LC retention time is 903 s.
Compound `COC(=O)Cn1c(C2CC(=O)N(c3cccc(OC)c3)C2)nc2ccccc21` (centres undefined) showed an RP-LC retention time of 718 s.
The result for `Cc1ccc(-c2coc(-c3ccc(NS(=O)(=O)c4ccc(Cl)s4)cc3)n2)c(C)c1` reads 1350 s.
`O=C(c1cn(-c2ccc(-c3nc(C4CC4)no3)cn2)cn1)N1CCc2ccccc2C1` registered an RP-LC retention time of 968 s.
With `Cn1c(CNC(=O)C2(C)CCCCC(=O)N2)nc2ccccc21` (centres undefined), the RP-LC retention time turned out to be 573 s.
`C=CCn1c(=O)c2ccccc2n(Cc2nc(-c3cccc(OC)c3)no2)c1=O` had an RP-LC retention time of 1010 s.
`O=C(O[C@@H]1CN2CCC1CC2)N1CCc2ccccc2C1c1ccccc1` (some centres undefined) came in with an RP-LC retention time of 757 s.
In turn, `O=C(NC1CCCCCC1)c1ccc2ccnc(N3CCN(c4ccccc4F)CC3)c2c1` displayed an RP-LC retention time of 973 s.
Turning to `CCc1nn2c(CNS(=O)(=O)Cc3ccc(C)c(C)c3)c(-c3ccccc3)nc2s1`, the RP-LC retention time was found to be 1040 s.
The result for `OC1CCOC2(CCN(Cc3ccccc3OC(F)(F)F)CC2)C1` (centres undefined) reads 602 s.
Take `O=C(CN1CCN(c2ccccn2)CC1)Nc1nccs1`: the RP-LC retention time stood at 555 s.
In turn, `Cc1nn(C2CCS(=O)(=O)C2)c(C)c1N1CCN(S(=O)(=O)c2cccnc2)CC1` (centres undefined) came in with an RP-LC retention time of 679 s.
`COc1ccc(OC)c(NC(=O)c2cc(C)n3nc(-c4ccco4)cc3n2)c1` gave an RP-LC retention time of 1160 s.
In turn, `CC1CCN(C(=O)C2CCN(c3nc4cccnc4s3)CC2)CC1` had an RP-LC retention time of 784 s.
The compound `CCc1cc(-c2csc(S(=O)(=O)N3CCN(c4cccc(Cl)c4)CC3)c2)on1` gave an RP-LC retention time of 1200 s.
Compound `Cc1cccc(-c2nc(Cn3nnc(-c4nc(-c5ccc(F)cc5)no4)c3C)c(C)o2)c1` gave an RP-LC retention time of 1300 s.
In turn, `CCCCn1nnc(NCc2ccc(-c3cccc(Cl)c3)o2)n1` gave an RP-LC retention time of 1150 s.
Turning to `Nc1nc(-c2ccc(Cl)cc2)nn1C(=O)Cc1ccc(Cl)cc1`, the RP-LC retention time came out at 1170 s.
Regarding `Cc1nn(-c2ccccc2)c2nc(C3CC3)cc(C(=O)NCc3ccco3)c12`, the RP-LC retention time was found to be 1100 s.
Compound `Cn1nc(-c2ccccc2)nc1C1CN(C(=O)Nc2ccccc2C(F)(F)F)C1` returned an RP-LC retention time of 807 s.
`Cn1nc(C(=O)N2CCCN(c3cc(-c4ccccc4)[nH]n3)CC2)c2ccccc21` returned an RP-LC retention time of 700 s.
Consider `Cc1ccc(-n2c(CN3CCN(C(=O)Nc4ccc5c(c4)OCCO5)CC3)nc3cccnc32)cc1`, for which the RP-LC retention time worked out at 676 s.
As for `CN(C)C[C@@H]1CN(Cc2ccccc2)C[C@H]1NS(=O)(=O)c1ccc(C#N)cc1`, the RP-LC retention time was 562 s.
In the case of `Cc1cc(C)n2c(Nc3ccc4c(c3)OCCO4)c(-c3cccc(Br)c3)nc2n1`, the RP-LC retention time amounted to 759 s.
The result for `Cc1ccc(S(=O)(=O)NC(C)c2nc(-c3ccc(-c4csc(C)n4)cc3)no2)cc1` (centres undefined) reads 1020 s; that for `CCN1C(=O)c2cccnc2Sc2cc(NC(=O)c3ccc(Cl)cc3)ccc21`, 907 s.
With `Cc1ccc(-c2noc(Cn3cnc4c(cnn4-c4ccc(C(C)C)cc4)c3=O)n2)cc1C`, the RP-LC retention time was 1330 s.
Take `Cc1cc(C(=O)N2CCCCC2)c2c(=O)n(CC(=O)c3c(C)n(C)c4ccccc34)c(=O)n(C)c2n1`: the RP-LC retention time stood at 934 s.
The result for `Cc1cc(C)n(-c2cc(Nc3ccccc3)ncn2)n1` reads 1010 s.
In turn, `O=C(Nc1cnc(N2CCCC2)nc1)c1ccc(F)c(F)c1` showed an RP-LC retention time of 748 s.
In the case of `CCNC(=O)c1n[nH]c2c1CN(C(=O)c1cc(F)cc(F)c1)CC2`, the RP-LC retention time amounted to 634 s.
On to `CCOC(=O)c1cnc2nc(C)ccc2c1Nc1ccc(S(N)(=O)=O)cc1`, for which the RP-LC retention time was 589 s.
In the case of `COc1ccc(CC(=O)N2CCc3cn(C)c4cccc(c34)C2)cc1` it was 946 s; in that of `CC(C)c1nc2c(NC(=O)c3ccsc3)cccn2n1`, 866 s; in that of `CCCNC(=O)c1ncn2c1C(=O)N(CCC)C(C)(C(=O)NCc1ccc(C)cc1)C2` (centres undefined), 750 s.
Compound `N#Cc1ccc(N2CCN(C(=O)COc3ccc4[nH]cc(CCN)c4c3)CC2)cc1` showed an RP-LC retention time of 684 s.
Compound `CC(C)(C)NC(=O)N1CCC(CNC(=O)c2cccs2)CC1` showed an RP-LC retention time of 655 s.
`CCCn1c(=O)sc2cc(S(=O)(=O)N3CCC(C(=O)N4CCN(CC)CC4)CC3)ccc21` displayed an RP-LC retention time of 640 s.
`Cc1cc(C)cc(NC(=O)Nc2nccn(-c3cccc(Cl)c3)c2=O)c1`: the RP-LC retention time is 1110 s.
Take `O=C(C1CC(=O)N(c2n[nH]c3cccc(F)c23)C1)N1CCN(c2ccccn2)CC1` (centres undefined): the RP-LC retention time stood at 582 s.
`CCC(C(=O)NCCCN1CCOCC1)n1c2ccccc2c2cnn(C)c(=O)c21` (centres undefined) showed an RP-LC retention time of 609 s.
In turn, `CCOC(=O)c1c(NCCc2cccs2)c2cccc(Cl)c2[nH]c1=O` came in with an RP-LC retention time of 844 s.
In turn, `CCOc1ccccc1CNC(=O)c1cc2c(=O)n(C)ccc2n1C` had an RP-LC retention time of 713 s.
`O=C(CN1CCc2[nH]c3c(F)c(Cl)ccc3c(=O)c2C1)NCc1ccc2c(c1)OCO2` yielded an RP-LC retention time of 661 s.
In turn, `Cn1cccc1C(=O)N1CCCC1c1nc(-c2ccccc2)n[nH]1` (centres undefined) came in with an RP-LC retention time of 716 s.
As to `COc1c(NC(C)=O)c2ccccc2c2ccccc12`, the RP-LC retention time was found to be 830 s.
The result for `CCOc1ccc(NC(=O)c2c(O)c3cccnc3n(-c3cccc(F)c3)c2=O)cc1` reads 1280 s; that for `Cc1ccc(F)c2c(=O)c3c([nH]c12)CCN(CC(=O)Nc1cccc(F)c1)C3`, 620 s; that for `CCOc1ccccc1NS(=O)(=O)c1cc(-c2cc(C(F)(F)F)on2)sc1C`, 1120 s.
In turn, `N#Cc1cccc(C(=O)Nc2ccc3cn[nH]c3c2)c1` came in with an RP-LC retention time of 659 s.
For `CC1CCCCN1CCNC(=O)c1nnc(-c2ccc(S(=O)(=O)N(C)C)cc2)o1` (centres undefined), the RP-LC retention time stood at 620 s.
Turning to `CCn1c(=O)c(C(=O)N2CCN(c3cc(C)ccc3C)CC2)nc2cccnc21`, the RP-LC retention time amounted to 1040 s.
`CCOc1ccc(CN2C[C@@H]3C(=O)N(CCc4ccccc4)C(=O)[C@@H]3C2)cc1OC` had an RP-LC retention time of 634 s.
Regarding `COc1ccccc1-c1nc2nccc(-c3ccco3)n2n1`, the RP-LC retention time was determined as 836 s.
In the case of `COc1ccc(-c2noc(C3(NC(=O)c4ccc(F)cc4)CCCCC3)n2)cc1` it was 1150 s; in that of `O=C(NCc1cccc(C(F)(F)F)c1)c1ccnc(N2CCCCC2)n1`, 1140 s.
The result for `CCc1nc2cc(-c3noc(Cc4ccc(OC)c(OC)c4)n3)ccc2o1` reads 956 s; that for `O=S(=O)(NCC1(c2cccs2)CCCC1)c1cccnc1`, 827 s.
In the case of `CC1=CC(=O)CC(C)(C)C1(O)/C=C/C(C)=C/C(=O)O` (centres undefined) it was 693 s; in that of `Cc1ccc(-c2nc(-c3ccc4nnc(C)n4c3)no2)c(C)c1`, 1140 s.
